{"source": "patent US9907795B2", "about": "“Method of treatment of chronic cough administering orvepitant in combination with other therapeutic agents” (NeRRe Therapeutics Limited, priority 2016, dated 2018)", "type_in_all_cases": "in vivo, human", "key": {"[1]": {"test_system": "patients with a diagnosis of chronic treatment-refractory cough", "test": "Objective cough frequency by ambulatory cough monitor, open-label pilot study", "details": "for daytime objective cough frequency, mean change from Baseline: Week 4 (end of treatment) vs Baseline, 30 mg once daily, p<0.001, primary endpoint", "description": "(§1) Orvepitant maleate Form 1 was evaluated in an open-label pilot study to determine the efficacy of multiple dosing in male and female patients with a diagnosis of chronic treatment-refractory cough for over 3 months. The study was a single-arm (30 mg orvepitant maleate Form 1 once daily), 4-week study with a 4 week follow-up. There were five scheduled clinic visits; Screening visit, Baseline visit, Week 1 visit, Week 4 visit (end of treatment period) and a Week 8 Follow-up visit. The following instruments were used to assess efficacy: • Subjects were fitted with an ambulatory cough monitor (ACM) to record objective cough frequency over 24 hours at Screening, Weeks 1, 4 and 8 • Cough-specific Quality of Life Questionnaire (CQLQ): Subjects were asked to complete this questionnaire at Screening, Weeks 1, 4 and 8 • Global Rating of Change for Cough Frequency & Severity Scale: Subjects were asked to complete this scale at Weeks 1, 4 and 8 • Cough Severity VAS: Subjects were issued with diaries for daily recording of Cough Severity VAS scores. 13 subjects were enrolled into the study and provided data on cough frequency, Cough QOL, Global Rating of Change for Cough Frequency and Severity, and Cough Severity VAS, but one of the 13 subjects had data missing on cough frequency (day and night) at week 4. The primary endpoint was change in objective daytime cough frequency at the end of the treatment period at Week 4 compared to Baseline."}, "[2]": {"test_system": "patients with a diagnosis of chronic treatment-refractory cough", "test": "Cough Severity VAS (daily diary), open-label pilot study", "description": "as §1, with “4.” for “4. The primary endpoint was change in objective daytime cough frequency at the end of the treatment period at Week 4 compared to Baseline.”"}, "[3]": {"test_system": "patients with a diagnosis of chronic treatment-refractory cough", "test": "Cough-specific Quality of Life Questionnaire (CQLQ), open-label pilot study", "description": "as §1, with “4.” for “4. The primary endpoint was change in objective daytime cough frequency at the end of the treatment period at Week 4 compared to Baseline.”"}, "[4]": {"test_system": "patients with a diagnosis of chronic treatment-refractory cough", "test": "Global Rating of Change for Cough Frequency & Severity Scale, open-label pilot study", "description": "as §1, with “4.” for “4. The primary endpoint was change in objective daytime cough frequency at the end of the treatment period at Week 4 compared to Baseline.”"}}, "note": "Structures can show the parent of a compound that is named as a salt.", "data": [{"smiles": "Cc1cc(F)ccc1[C@H]1C[C@@H](N2CCN3C(=O)CC[C@H]3C2)CCN1C(=O)N(C)[C@H](C)c1cc(C(F)(F)F)cc(C(F)(F)F)c1", "note": "[Orvepitant maleate Form 1, 2-(R)-(4-Fluoro-2-methyl-phenyl)-4-(S)-((8aS)-6-oxo-hexahydro-pyrrolo[1,2-α]-pyrazin-2-yl)-piperidine-1-carboxylic acid [1-(R)-(3,5-bis-trifluoromethyl-phenyl)-ethyl]-methylamide maleate]", "values": [{"measurement": "reduction in mean night-time objective cough frequency", "setting": "[1]; Week 1 vs Baseline, p=0.19", "value": "no significant reduction"}, {"measurement": "daytime objective cough frequency, mean change from Baseline", "setting": "[1]; negative binomial regression model", "value": "−18.9", "unit": "coughs/hr"}, {"measurement": "daytime objective cough frequency, mean change from Baseline", "setting": "[1]", "value": "−26", "unit": "%"}, {"measurement": "reduction in mean night-time objective cough frequency", "setting": "[1]; Week 4 vs Baseline, p=0.65", "value": "no significant reduction"}, {"measurement": "change in daytime objective cough frequency", "setting": "[1]; Week 8 compared to Week 4, p=0.86", "value": "no significant change"}, {"measurement": "reduction in mean night-time objective cough frequency", "setting": "[1]; between Weeks 4 and 8, p=0.10", "value": "no significant reduction"}, {"measurement": "night-time cough severity VAS, average change from Baseline", "setting": "[2]; Week 1 of study, p=0.01", "value": "−14", "unit": "%"}, {"measurement": "daytime cough severity VAS, average change from Baseline", "setting": "[2]; Week 2 of study, p=0.002", "value": "−39", "unit": "%"}, {"measurement": "daytime cough severity VAS, average change from Baseline", "setting": "[2]; Week 6 of study, p=0.001", "value": "−14", "unit": "%"}, {"measurement": "night-time cough severity VAS, average change from Baseline", "setting": "[2]; Week 6 of study, p=0.017", "value": "−18", "unit": "%"}, {"measurement": "CQLQ Overall score, mean change from Baseline", "setting": "[3]; Week 1, p<0.001", "value": "−4.0"}, {"measurement": "CQLQ Overall score, mean change from Baseline", "setting": "[3]; Week 4, p=0.005", "value": "−4.4"}, {"measurement": "CQLQ Overall score, mean change from Baseline", "setting": "[3]; Week 8, p=0.033", "value": "−3.4"}, {"measurement": "CQLQ Extreme Physical domain, change from Baseline", "setting": "[3]; Weeks 1, 4 and 8", "value": "significant changes from Baseline"}, {"measurement": "CQLQ Psychosocial domain, change from Baseline", "setting": "[3]; Weeks 1, 4 and 8", "value": "significant changes from Baseline"}, {"measurement": "CQLQ Overall score, difference", "setting": "[3]; between Weeks 4 and 8, p=0.52", "value": "no significant difference"}, {"measurement": "CQLQ, any of the domains, change", "setting": "[3]; from Week 4 to Week 8", "value": "no significant changes"}, {"measurement": "CQLQ Emotional domain, change", "setting": "[3]; in vivo", "value": "No significant changes"}, {"measurement": "Global Rate of Change, cough frequency: subjects who felt worse", "setting": "[4]; Week 1", "value": "No subjects felt worse"}, {"measurement": "Global Rate of Change, cough severity: subjects who felt worse", "setting": "[4]; Week 1", "value": "No subjects felt worse"}, {"measurement": "Global Rate of Change, cough frequency: median improvement score", "setting": "[4]; Week 1, 3 = somewhat better", "value": 3}, {"measurement": "Global Rate of Change, cough severity: median improvement score", "setting": "[4]; Week 1, 4 = moderately better", "value": 4}, {"measurement": "Global Rate of Change, cough frequency: subjects who felt worse", "setting": "[4]; Week 4", "value": "No subjects felt worse"}, {"measurement": "Global Rate of Change, cough severity: subjects who felt worse", "setting": "[4]; Week 4", "value": "No subjects felt worse"}, {"measurement": "Global Rate of Change, cough frequency: median improvement score", "setting": "[4]; Week 4, 3 = somewhat better", "value": 3}, {"measurement": "Global Rate of Change, cough severity: median improvement score", "setting": "[4]; Week 4, 3 = somewhat better", "value": 3}]}]}
